Measured values: ChEMBL document CHEMBL1926664, “Synthesis and antiproliferative evaluation of 6-aryl-11-iminoindeno[1,2-c]quinoline derivatives” (2011)

Columns and labels:
MCF7 = test: Growth inhibition of human MCF7 cells after 72 hrs by XTT assay; format: functional; details: MCF7, 72 h
MDA-MB-231 = test: Growth inhibition of human MDA-MB-231 cells after 72 hrs by XTT assay; format: functional; details: MDA-MB-231, 72 h
A549 = test: Growth inhibition of human A549 cells after 72 hrs by XTT assay; format: functional; details: A549, 72 h
[1] = Growth inhibition of human H1299 cells after 72 hrs by XTT assay; format: functional; details: NCI-H1299, 72 h
HepG2 = test: Growth inhibition of human HepG2 cells after 72 hrs by XTT assay; format: functional; details: HepG2, 72 h
[2] = Growth inhibition of human Hep3B cells after 72 hrs by XTT assay; format: functional, Hep 3B2

Compound | GI50 (MCF7) [µM] | GI50 (MDA-MB-231) [µM] | GI50 (A549) [µM] | GI50 (HepG2) [µM] | GI50 [1] [µM] | GI50 [2] [µM]
O/N=C1\c2cc(O)ccc2-c2c(-c3ccc(O)cc3)nc3ccc(F)cc3c21 | 8.77 | 8.41 | > 10 | > 10 | > 10 | 7.6
CN(C)CCCO/N=C1\c2cc(O)ccc2-c2c(-c3ccc(OCCCN(C)C)cc3)nc3ccccc3c21 | 6.65 | 0.63 | 2.03 | 3.77 | 0.69 | 0.61
COc1ccc(-c2nc3ccccc3c3c2-c2ccc(OC)cc2/C3=N\OCCN2CCCC2)cc1 | 6.71 | 5.33 | 5.27 | 5.48 | 6.31 | 4.68
Oc1ccc(-c2nc3ccc(F)cc3c3c2-c2ccc(O)cc2/C3=N\OCCN2CCCC2)cc1 | 6.26 | 0.68 | 0.84 | 5.04 | 6.48 | 0.64
COc1ccc(-c2nc3ccccc3c3c2-c2ccc(OC)cc2/C3=N\OCCCN(C)C)cc1 | 6.57 | 7.01 | 6.69 | 6.54 | 6.61 | 3.14
Oc1ccc(-c2nc3ccc(F)cc3c3c2-c2ccc(OCCN4CCCC4)cc2/C3=N\OCCN2CCCC2)cc1 | 6.2 | 0.33 | 0.53 | 5.71 | 7.09 | 0.23
Oc1ccc2c(c1)/C(=N\OCCN1CCCC1)c1c-2c(-c2ccc(OCCN3CCCC3)cc2)nc2ccccc12 | 5.92 | 0.51 | 0.54 | 4.11 | 0.57 | 0.92
CN(C)CCCO/N=C1\c2cc(O)ccc2-c2c(-c3ccc(O)cc3)nc3ccc(F)cc3c21 | 6.28 | 4.74 | 6.46 | 6.24 | 6.3 | 0.69
COc1ccc(-c2nc3ccc(OC)cc3c3c2-c2ccc(OC)cc2/C3=N\O)cc1 | > 10 | > 10 | > 10 | > 10 | > 10 | > 10
COc1ccc(-c2nc3ccc(OC)cc3c3c2-c2ccc(OC)cc2/C3=N\OCCN2CCCC2)cc1 | 6.25 | 5.15 | 6.42 | 6.03 | 6.54 | 6.17
COc1ccc(-c2nc3ccc(F)cc3c3c2-c2ccc(OC)cc2/C3=N\O)cc1 | > 10 | > 10 | > 10 | > 10 | > 10 | > 10
COc1ccc(-c2nc3ccc(F)cc3c3c2-c2ccc(OC)cc2/C3=N\OCCCN(C)C)cc1 | 6.18 | 0.7 | 0.91 | 5.75 | 0.61 | 0.66
COc1ccc(-c2nc3ccc(F)cc3c3c2-c2ccc(OC)cc2/C3=N\OCCN2CCCCC2)cc1 | > 10 | > 10 | > 10 | > 10 | > 10 | > 10

More lines, main results first:

GI50 (MCF7) [µM] | GI50 (MDA-MB-231) [µM] | GI50 (A549) [µM] | GI50 (HepG2) [µM] | Compound | GI50 [1] [µM] | GI50 [2] [µM]
7.83 | 0.58 | 0.88 | 5.74 | Oc1ccc(-c2nc3ccccc3c3c2-c2ccc(O)cc2/C3=N\OCCN2CCCC2)cc1 | 6.06 | 0.52
6.42 | 0.68 | 0.79 | 4.09 | Oc1ccc(-c2nc3ccccc3c3c2-c2ccc(OCCN4CCCC4)cc2/C3=N\OCCN2CCCC2)cc1 | 6.51 | 0.78
> 10 | > 10 | > 10 | > 10 | COc1ccc(-c2nc3ccccc3c3c2-c2ccc(OC)cc2/C3=N\O)cc1 | > 10 | > 10
> 10 | 3.07 | 2.1 | 4.96 | CN(C)CCCO/N=C1\c2cc(OCCCN(C)C)ccc2-c2c(-c3ccc(O)cc3)nc3ccccc3c21 | 5.3 | 5.41
6.06 | 0.93 | 0.5 | 1.55 | CN(C)CCCO/N=C1\c2cc(O)ccc2-c2c(-c3ccc(O)cc3)nc3ccccc3c21 | 6.94 | 0.67
6.04 | 0.48 | 0.31 | 1.08 | Oc1ccc2c(c1)/C(=N\OCCN1CCCC1)c1c-2c(-c2ccc(OCCN3CCCC3)cc2)nc2ccc(F)cc12 | 0.7 | 0.47
6.3 | 6.13 | 6.62 | 5.95 | COc1ccc(-c2nc3ccc(OC)cc3c3c2-c2ccc(OC)cc2/C3=N\OCCCN(C)C)cc1 | 5.7 | 6.49
> 10 | 8.47 | > 10 | > 10 | O/N=C1\c2cc(O)ccc2-c2c(-c3ccc(O)cc3)nc3ccccc3c21 | > 10 | > 10
> 10 | 9.17 | > 10 |  | CCc1c2c(nc3ccc(OC(=O)N4CCC(N5CCCCC5)CC4)cc13)-c1cc3c(c(=O)n1C2)COC(=O)[C@]3(O)CC [IRINOTECAN] | > 10 | 
6.25 | 0.67 | 0.42 | 0.66 | CN(C)CCCO/N=C1\c2cc(OCCCN(C)C)ccc2-c2c(-c3ccc(O)cc3)nc3ccc(F)cc3c21 | 0.84 | 0.56
6.36 | 5.99 | 9.24 | 9.46 | COc1ccc(-c2nc3ccc(F)cc3c3c2-c2ccc(OC)cc2/C3=N\OCCN2CCCC2)cc1 | 3.15 | 3.11
> 10 | 0.078 |  |  | CC[C@@]1(O)C(=O)OCc2c1cc1n(c2=O)Cc2cc3c(CN(C)C)c(O)ccc3nc2-1 [TOPOTECAN] | > 10 | 0.22
> 10 | > 10 | > 10 | > 10 | COc1ccc(-c2nc3ccccc3c3c2-c2ccc(OC)cc2/C3=N\OCCN2CCCCC2)cc1 | > 10 | 8.29
